The record followed here is patent US20090054376A1, “BENZOFURAN DERIVATIVES WITH THERAPEUTIC ACTIVITIES” (Pharmos Corporation, priority 2005, published 2009).

One experiment deals with IL-1β. As to the kind of experiment: Gene expression in LPS activated RAW 264.7 macrophages, IL-1β. It is filed as cell-based, mouse. Conditions: RAW 264.7, 10 μM, LPS 1 μg/ml, RNA 3 hrs after activation, vs vehicle treated activated cells. How it is done:
(§1) RAW 264.7 macrophages, a mouse cell line (ATCC # TIB 71), were grown in Dulbecco's modified Eagle's medium (DMEM) with 4 mM L-glutamine adjusted to contain 1.5 g/L sodium bicarbonate, 4.5 g/L glucose, and 10% heat inactivated fetal bovine serum. Cells were grown in tissue culture flasks and seeded at appropriate density into 6 wells tissue culture plates. Four million Raw cells in half a milliliter were stimulated with 1 μg/ml LPS E. coli 055:B5 (DIFCO Laboratories). The mouse macrophages were pre-treated for one hour with controls or 10 μM of test compounds, and later on activated with LPS. RNA samples were extracted from the cells 3 hrs after activation and gene expression levels were analyzed by real-time RT-PCR. In parallel, supernatants were collected and secretion of inflammatory mediators was analyzed using ELISA techniques according to the instructions of the kit manufacturer.
(§2) Total RNA is prepared using SV total RNA isolation system (Promega). The cells were homogenized in lysis buffer. The lysates were transferred to an RNA isolation column, treated with DNAse, washed and eluted according to kit instructions. RNA concentrations were determined using GeneQuant II (Pharmacia-Amersham). Complementary DNA (cDNA) was synthesized from total RNA using […] II reverse transcriptase (Life Technologies). 2 μg of total RNA were combined with an oligo (dT)15 primer, 0.5 mM dNTP mix, 8 units of reverse transcriptase and other reaction components up to a final volume of 20 μl, according to the kit instructions. The reaction mixture was incubated at 42° C. for 45 min and inactivated at 70° C. for 15 minutes. Quantitative real-time RT-PCR included 1 μl of the cDNA, 300 nM of the appropriate forward and reverse primers (according to the gene monitored) and 7.5 μl of the reaction mix containing buffer, nucleotides, Taq polymerase and SYBER green (SYBER Green master mix, Applied Biosystems), in a total reaction volume of 15 μl. Gene amplification was obtained using the GeneAmp 5700 sequence detection system (Applied Biosystems). Amplification included one stage of 10 minutes at 95° C. followed by 40 cycles of a 2-steps loop: 20 seconds at 95° C., and 1 minute at 60° C. During each annealing step, the amount of the amplified product was measured by the fluorescence of the double strand DNA binding dye, SYBER Green. The cycle of threshold (CT), representing the PCR cycle at which an increase in fluorescence above a baseline signal can be first detected, was determined for each product. A delay of one PCR cycle in the CT is translated into a two-fold decrease in starting template molecules and vice versa. The changes in the CT of the specific gene product were normalized to the changes in the CT of housekeeping cyclophilin or GAPDH as reference genes. Results were expressed as fold increase of gene expression in treated or untreated activated cells above the resting cells, after normalization to cyclophilin or GAPDH. Cells were also tested for viability to confirm that any effect on gene expression was indeed due to modulation of transcription of a specific target and not to cytoxicity.
(§3) Results were further expressed as percent inhibition of gene expression in compound treated activated cells over vehicle “treated” activated cells. Since the modulation of IL-10 and TNF-α gene expression by the compounds of the invention is relatively minor, it is not reported. […] Inhibition above 50% was considered significant.

The test system of the next experiment is iNOS. As to the kind of experiment: Gene expression in LPS activated RAW 264.7 macrophages, iNOS. It is filed as cell-based, mouse. As to conditions: RAW 264.7, 10 μM, LPS 1 μg/ml, RNA 3 hrs after activation, vs vehicle treated activated cells. As to the method:
as §1, §2, §3

The subject of experiment [1] is carrageenan induced inflammatory pain and paw edema. Briefly: Inflammatory pain and paw edema induced by carrageenan. It is filed as in vivo, Male Sprague Dawley rats. Conditions: for inhibition in vivo at 3 mg/kg / inhibition in vivo at 10 mg/kg: Rattus norvegicus, ip; for inhibition in vivo at 3 mg/kg: 3 mg/kg i.p. (one asterisk). Summed up:
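Male Sprague Dawley rats (~200 g) received 0.1 ml 2% λ-carrageenan subplantar in the right paw; compounds given i.p. at 3, 10 or 20 mg/kg (some p.o.) immediately after. Thermal (Hargreaves) latency, mechanical threshold, paw thickness and volume measured at 0 and 3 h; values are inter-paw differences ([…], ΔForce), volume as % of vehicle.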

Setting [2] is: 10 mg/kg i.p., 3 hours, mechanical stimulus, read-out: Percent Inhibition of Inflammatory Pain Responses, ΔForce.
[3] abbreviates: 10 mg/kg i.p., 3 hours, thermal stimulus, read-out: Percent Inhibition of Inflammatory Pain Responses, ΔLT.
Setting [4] is: 10 mg/kg i.p., 3 hours after carrageenan, reduction in paw swelling, read-out: Percent Inhibition of Inflammatory Pain Responses, Edema.

Like-named read-outs stand apart in the source and are kept apart here.

Take `CCCCCCC(C)(C)c1cc(O)c2c(c1)OC1C(O)CCCCC21` (stereo not drawn) [Compound C7S-2, 2-(1,1-dimethylheptyl)-5,6,7,8,9,9a-hexahydro-4bH-10-oxa-benzo[α]azulen-4,9-diol]: in the experiment on IL-1β, the “Percent inhibition of gene expression, IL-1β” value (“Percent inhibition … IL-1β” below) was “NO (NO indicates that the compound tested did not significantly affect the transcription of the gene assessed and that its activity is comparable to vehicle, within ±20% from this control)”. The “Percent inhibition of gene expression, iNOS” value (“Percent inhibition … iNOS” for short) in the experiment with iNOS is “NO (NO indicates that the compound tested did not significantly affect the transcription of the gene assessed and that its activity is comparable to vehicle, within ±20% from this control)”. In addition, the “reduction of paw swelling” value in experiment [1] (5 mg/kg p.o.) is on record as 41%; in experiment [1] (20 mg/kg p.o.), 50%. The inhibition in vivo at 3 mg/kg in experiment [1] (3 hours, mechanical stimulus, read-out: Percent Inhibition of Inflammatory Pain Responses, ΔForce) is 66%; in experiment [1] (3 hours, reduction in paw swelling, read-out: Percent Inhibition of Inflammatory Pain Responses, Edema) it was 56%; in experiment [1] (3 hours, thermal stimulus, read-out: Percent Inhibition of Inflammatory Pain Responses, ΔLT), 66%.

In the case of `CCCCC(C)(C)c1cc(O)c2c(c1)OC1(C)CCCC21` (stereo not drawn) [Compound C5S-1, 6-(1,1-dimethylpentyl)-8a-methyl-2,3,3a,8a-tetrahydro-1H-8-oxa-cyclopenta[α]inden-4-ol], the “Percent inhibition … IL-1β” value in the experiment with IL-1β is listed as 47%. In addition, the “Percent inhibition … iNOS” value in the experiment with iNOS came to 37%.

As to `CCCCC(C)(C)c1cc(O)c2c(c1)OC1C2CCC(C)(C)C1O` (stereo not shown) [Compound C6S-7, 3-(1,1-dimethylpentyl)-7,7-dimethyl-5a,6,7,8,9,9a-hexahydro-dibenzofuran-1,6-diol], the figures for the inhibition in vivo at 10 mg/kg in experiment [1] (setting [2]) and in experiment [1] (setting [3]) were 41% and 54%, respectively.

For `CCCCC(C)(C)c1cc(O)c2c(c1)OC1CCCCC21` (stereo not shown) [Compound C6S-3, 3-(1,1-dimethylpentyl)-5a,6,7,8,9,9a-hexahydro-dibenzofuran-1-ol], in the experiment on IL-1β, the “Percent inhibition … IL-1β” value was 74%. Moreover, the “Percent inhibition … iNOS” value in the experiment on iNOS is on record as 68%. Also, the inhibition in vivo at 10 mg/kg in experiment [1] (setting [4]) is 48%; in experiment [1] (setting [2]) it was 49%; in experiment [1] (setting [3]) it was 84%.

`CCCCCCC(C)(C)c1cc(O)c2c(c1)OC1(C)CCCC21` (stereo not drawn) [Compound C5S-2, 6-(1,1-dimethylheptyl)-8a-methyl-2,3,3a,8a-tetrahydro-1H-8-oxa-cyclo-penta[α]inden-4-ol]: in the experiment with IL-1β, the “Percent inhibition … IL-1β” value was 81%. In addition, in the experiment with iNOS, the “Percent inhibition … iNOS” value is “NO (NO indicates that the compound tested did not significantly affect the transcription of the gene assessed and that its activity is comparable to vehicle, within ±20% from this control)”. Moreover, the “Percent Inhibition of Inflammatory Pain Responses, Edema” value in experiment [1] (10 mg/kg i.p., 3 hours after carrageenan, reduction in paw swelling) was 48%. Moreover, the “Percent Inhibition of Inflammatory Pain Responses, ΔForce” value in experiment [1] (10 mg/kg i.p., 3 hours, mechanical stimulus) turned out to be 8%. The “Percent Inhibition of Inflammatory Pain Responses, ΔLT” value in experiment [1] (10 mg/kg i.p., 3 hours, thermal stimulus) came to 43%.

For the molecule `CCCCCCC(C)(C)c1cc(O)c2c(c1)OC1C=CCCC21` (stereo not shown) [Compound C6S-2, 3-(1,1-Dimethylheptyl)-5a,8,9,9a-tetrahydro-dibenzofuran-1-ol], the “Percent inhibition … IL-1β” value in the experiment with IL-1β amounted to 58%. Further, the “Percent inhibition … iNOS” value in the experiment with iNOS was 23%. In addition, the inhibition in vivo at 10 mg/kg in experiment [1] (setting [4]) came out at 36%; in experiment [1] (setting [2]) it was 30%; in experiment [1] (setting [3]) it was 58%.

With `CCCCCCC(C)(C)c1cc(O)c2c3c(oc2c1)C(=O)CCC3(C)C` [Compound C6M-9, 7-(1,1-Dimethylheptyl)-9-hydroxy-1,1-dimethyl-2,3-dihydro-1H-dibenzofuran-4-one], in the experiment on IL-1β, the “Percent inhibition … IL-1β” value is “NO (NO indicates that the compound tested did not significantly affect the transcription of the gene assessed and that its activity is comparable to vehicle, within ±20% from this control)”. In the experiment on iNOS, the “Percent inhibition … iNOS” value is recorded as 32%. Besides, the inhibition in vivo at 10 mg/kg in experiment [1] (setting [4]) was found to be 49%; in experiment [1] (setting [2]), 27%; in experiment [1] (setting [3]), 75%.
